# Measurements published in patent US20110237538A1, “TREATMENT OF LYSOSOMAL STORAGE DISORDERS AND OTHER PROTEOSTATIC DISEASES” (SUMMIT CORPORATION PLC, priority 2008, published 2011).
# How the values were obtained:
# [1] = target: T1, wild type (wt) beta-glucocerebrosidase (Homo sapiens, UniProt P04062); experiment: beta-glucocerebrosidase activity assay in HL60 lysate (4MU-β-D-glc); assay type: biochemical; conditions: at a concentration of 100 μM, 0.5 mM 4MU-β-D-glc;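 also: fluorometric read-out of 4MU liberated from the substrate (ex 360 nm, em 450 nm) after 37 °C incubation, reaction stopped with sodium carbonate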
# T1 construct: The lysates were used as a source for wild type (wt) beta-glucocerebrosidase; endogenous in cells; host or cells: HL60 (ECACC No. 98070106) lysate
# T1 sequence (P04062 40-536): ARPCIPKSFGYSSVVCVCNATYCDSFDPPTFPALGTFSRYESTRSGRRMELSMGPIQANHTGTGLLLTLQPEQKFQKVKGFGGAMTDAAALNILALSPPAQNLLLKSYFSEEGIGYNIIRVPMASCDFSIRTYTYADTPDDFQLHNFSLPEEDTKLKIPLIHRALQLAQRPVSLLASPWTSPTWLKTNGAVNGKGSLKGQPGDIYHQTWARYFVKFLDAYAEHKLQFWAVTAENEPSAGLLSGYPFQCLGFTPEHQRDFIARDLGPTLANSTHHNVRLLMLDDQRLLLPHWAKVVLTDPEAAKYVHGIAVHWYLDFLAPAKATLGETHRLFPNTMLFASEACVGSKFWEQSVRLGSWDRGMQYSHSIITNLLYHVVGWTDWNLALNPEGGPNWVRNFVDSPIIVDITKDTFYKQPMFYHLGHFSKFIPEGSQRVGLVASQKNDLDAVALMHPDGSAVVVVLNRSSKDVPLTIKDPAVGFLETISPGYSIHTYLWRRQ
# [2] = target: T2, wild type (wt) lysosomal alpha-glucosidase (Homo sapiens, UniProt P10253); experiment: alpha-glucosidase activity assay in HL60 lysate (4MU-α-D-glc); assay type: biochemical; conditions: at a concentration of 100 uM, 0.5 mM 4MU-α-D-glc, pH 4.5;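 also: fluorometric rate of 4MU product release read at 360 nm excitation and 450 nm emission, reactions run at 37 °C in citric phosphate buffer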
# T2 construct: The lysates were used as a source for wild type (wt) lysosomal alpha-glucosidase; endogenous in cells; host or cells: HL60 (ECACC No. 98070106) lysate
SMILES,inhibition at 100 µM [1] [%],inhibition at 100 µM [2] [%]
"O=C(NC[C@@H]1[C@@H](O)[C@@H](O)CN1Cc1ccc(-c2ccccc2)cc1)c1ccccc1 [Compound 649, N-(((2R,3R,4S)-1-(biphenyl-4-ylmethyl)-3,4-dihydroxypyrrolidin-2-yl)methyl)benzamide]",> 50,
"OC[C@H]1[C@@H](O)[C@H](O)[C@H]2[C@H](O)[C@@H](O)CN21 [Compound 129, (1R,2R,3S,6S,7S,7aR)-3-(hydroxymethyl)hexahydro-1H-pyrrolizine-1,2,6,7-tetraol]",> 50,
"CC(O)CC[C@@H]1[C@@H](O)C[C@@H]2[C@H](O)[C@H](O)[C@@H](CO)N21 (stereo partly drawn) [Compound 66, (1S,2R,3R,5R,6S,7aR)-5-(3-hydroxybutyl)-3-(hydroxymethyl)hexahydro-1H-pyrrolizine-1,2,6-triol]",> 50,
"NC[C@H]1[C@@H](O)[C@@H](O)CN1Cc1ccc(-c2ccccc2)cc1 [Compound 686, (2S,3R,4S)-2-(aminomethyl)-1-(biphenyl-4-ylmethyl)pyrrolidine-3,4-diol]",> 50,
"CCCCCCCCCN1[C@H](CO)[C@@H](O)[C@H](O)[C@H]1CO [Compound 555, (2R,3R,4R,5R)-2,5-bis(hydroxymethyl)-1-nonylpyrrolidine-3,4-diol]",> 50,
"OCC1OC(O[C@@H]2[C@@H](O)[C@H](O)[C@]3(O)CC[C@H]2N3)C(O)C(O)C1O (stereo partly drawn) [Compound 105, (1R,2S,3S,4S,5R)-4-(3,4,5-trihydroxy-6-(hydroxymethyl)tetrahydro-2H-pyran-2-yloxy)-8-azabicyclo[3.2.1]octane-1,2,3-triol]",> 50,
"O=C(CCCCO)CCCCCCC[C@@H](O)[C@H]1N[C@H](CO)[C@@H](O)[C@@H]1O [Compound 226, (R)-13-((2R,3R,4R,5R)-3,4-dihydroxy-5-(hydroxymethyl)pyrrolidin-2-yl)-1,13-dihydroxytridecan-5-one]",> 50,
"C[C@@H]1CCC[C@@H]2[C@@H](O)[C@@H](O)[C@@H](CO)N12 [Compound 60, (1R,2S,3R,5R,8aR)-3-(hydroxymethyl)-5-methyloctahydroindolizine-1,2-diol]",> 50,
"O=C(NC[C@H]1[C@@H](O)[C@@H](O)CN1Cc1ccc(-c2ccccc2)cc1)c1ccc(-c2ccccc2)cc1 [Compound 701, N-(((2S,3R,4S)-1-(biphenyl-4-ylmethyl)-3,4-dihydroxypyrrolidin-2-yl)methyl)biphenyl-4-carboxamide]",> 50,
"O[C@@H]1[C@@H](O)[C@H](O)[C@]2(O)C[C@@H](O)[C@H]1N2 [Compound 33, (1R,2S,3R,4S,5R,6R)-8-azabicyclo[3.2.1]octane-1,2,3,4,6-pentaol]",> 50,
"OC[C@@H]1[C@@H](O)[C@H](O)[C@@H]2[C@@H](O)CCN21 [Compound 17, (1R,2R,3R,7S,7aS)-3-(hydroxymethyl)hexahydro-1H-pyrrolizine-1,2,7-triol]",> 50,
"C[C@@H]1NC(C(=O)NCc2ccccc2)[C@H](O)[C@H](O)[C@H]1O (stereo partly drawn) [Compound 267, (3S,4R,5S,6S)-N-benzyl-3,4,5-trihydroxy-6-methylpiperidine-2-carboxamide]",> 50,
"O[C@H]1[C@H](O)[C@H](O)CN(CCCCCOCC23CC4CC(CC(C4)C2)C3)C[C@H]1O [Compound 766, (3R,4R,5R,6R)-1-(5-(adamantan-1-yl-methoxy)-pentyl)azepane-3,4,5,6-tetraol]",> 50,
"OC[C@@H]1[C@@H](O)[C@H](O)[C@@H](CO)N1Cc1ccc(-c2ccccc2)cc1 [Compound 558, (2R,3R,4R,5R)-1-(biphenyl-4-ylmethyl)-2,5-bis(hydroxymethyl)pyrrolidine-3,4-diol]",,> 50
"OC1C[C@@]2(O)N[C@@H]1C[C@H](O)[C@H]2O (stereo partly drawn) [Compound 43, (1S,2R,3S,5R)-8-azabicyclo[3.2.1]octane-1,2,3,6-tetraol]",> 50,

# Second part, the compound after the results:
inhibition at 100 µM [1] [%],inhibition at 100 µM [2] [%],SMILES
> 50,,"OC[C@@H]1[C@@H](O)[C@H](O)CN1CCCOc1ccccc1 [Compound 349, (2R,3R,4R)-2-(hydroxymethyl)-1-(3-phenoxypropyl)pyrrolidine-3,4-diol]"
> 50,,"OCCCCCCCCCN1[C@H](CO)[C@@H](O)[C@H](O)[C@H]1CO [Compound 557, (2R,3R,4R,5R)-2,5-bis(hydroxymethyl)-1-(9-hydroxynonyl)pyrrolidine-3,4-diol]"
> 50,,"OCC1OC(CO)(O[C@H]2[C@H](O)[C@H](O)[C@H](CO)N[C@@H]2CO)C(O)C1O (stereo partly drawn) [Compound 77, (2S,3R,4R,5R,6R)-5-(3,4-dihydroxy-2,5-bis(hydroxymethyl)tetrahydrofuran-2-yloxy)-2,6-bis(hydroxymethyl)piperidine-3,4-diol]"
> 50,,"OC[C@@H]1CNC[C@H](O)[C@H]1O [Compound 641, (3S,4S,5S)-5-(hydroxymethyl)piperidine-3,4-diol]"
> 50,,"O=C(O)CN1C[C@H](CO)[C@@H](O)[C@H](O)C1 [Compound 450, 2-((3R,4R,5R)-3,4-dihydroxy-5-(hydroxymethyl)piperidin-1-yl)acetic acid]"
> 50,,"OC[C@H]1CNC[C@@H](O)[C@@H]1O [Compound 279, (3R,4R,5R)-5-(Hydroxymethyl)-3,4-piperidinediol]"
> 50,,"OC[C@H]1[C@@H](O)[C@H](O)CN1CC1CCCCC1 [Compound 320, (2S,3R,4R)-1-(cyclohexylmethyl)-2-(hydroxymethyl)pyrrolidine-3,4-diol]"
> 50,,"O=C(O)CN1C[C@@H](CO)[C@H](O)[C@@H](O)C1 [Compound 451, 2-((3S,4S,5S)-3,4-dihydroxy-5-(hydroxymethyl)piperidin-1-yl)acetic acid]"
> 50,,"CCCCCCCCCN1C[C@@H](O)[C@H](O)[C@H]1CO [Compound 568, (2R,3R,4R)-2-(hydroxymethyl)-1-nonylpyrrolidine-3,4-diol]"
> 50,,"OC[C@@H]1CNC[C@@H](O)[C@H]1O [Compound 219, (3R,4S,5S)-5-(hydroxymethyl)piperidine-3,4-diol]"
> 50,,"OCCN1C[C@H](CO)[C@@H](O)[C@H](O)C1 [Compound 420, (3R,4R,5R)-1-(2-hydroxyethyl)-5-(hydroxymethyl)piperidine-3,4-diol]"
> 50,,"CCCCCCCCCN1C[C@@H](O)[C@H](O)[C@H](O)[C@@H](O)C1 [Compound 736, (3R,4S,5R,6S)-1-nonylazepane-3,4,5,6-tetraol]"
> 50,,"CCCCNC(=O)C1N[C@@H](C)[C@H](O)[C@@H](O)[C@H]1O (stereo partly drawn) [Compound 265, (3S,4R,5S,6S)-N-butyl-3,4,5-trihydroxy-6-methylpiperidine-2-carboxamide]"
> 50,,"CCCCN1C[C@H](CO)[C@@H](O)[C@H](O)C1 [Compound 419, (3R,4R,5R)-1-butyl-5-(hydroxymethyl)piperidine-3,4-diol]"
,> 50,"C[C@@H]1N[C@@H](CO)[C@H](O)[C@H]1O [Compound 300, (2S,3S,4S,5S)-2-(hydroxymethyl)-5-methylpyrrolidine-3,4-diol]"
> 50,,"OCCN1C[C@@H](CO)[C@H](O)[C@@H](O)C1 [Compound 640, (3S,4S,5S)-1-(2-hydroxyethyl)-5-(hydroxymethyl)piperidine-3,4-diol]"
